Data as given in patent publication US12661362B2, “Methods for the prevention and treatment of hearing loss” (Ting Therapeutics LLC, priority 2020, dated 2026).

Assays:
zebrafish neuromast HCs = test: Zebrafish lateral-line neuromast hair cell protection against Cisplatin; assay type: in vivo, Danio rerio
Method: Danio rerio experimental larvae were obtained by pair mating of adult fish maintained at Creighton University by standard methods approved by the Institutional Animal Care and Use Committee. […] We used Tg(pou4f3:mGFP) expressing a membrane bound GFP in HCs. Experimental fish were maintained at 28.5° C. in E3 media (5 mM NaCl, 0.17 mM KCl, 0.33 mM CaCl2) and […], pH 7.2). Animals were cryoanaesthetized after drug treatment and prior to fixation. The neuromasts inspected, S03 and 01-2, were part of the cranial system and included the otic, middle, and opercular neuromasts.
Subsequently, animals were transferred to E3 water for 5 hours and fixed in 4% paraformaldehyde (PFA) overnight (26). Neuromast HCs were immunolabeled with anti-otoferlin (HCS-1, DSHB) and anti-GFP (NB100-1614, Novus Biologicals). These two markers were used to detect and count neuromast HCs to reduce the chances of missing some of the HCs after the treatment since we previously noticed that incubation with the compounds can affect GFP expression more difficult to detect under a fluorescence microscope. Otic, middle, and opercular neuromasts were identified, and HCs at S03 (supraorbital line neuromast) and 01-2 (Otic line neuromasts) were manually counted using a Zeiss AxioSkop 2 fluorescence microscope with a 40× oil objective. Compounds were then evaluated on efficiency and potency, with the top-rated compounds showing high protection at lower concentrations.

[1] = following 2,000 mg oral use; cited from earlier work
ggcsh = test: Expression of nrf2 downstream gene ggcsh in zebrafish; assay type: in vivo; conditions: 0.002-1.48 μM, 6 hours
Method: Additionally to FIGS. 6A-6B, but not shown, 5 dpf zebrafish were incubated for 6 hours with vehicle, niclosamide (2 nM to 1.48 μM) and the nrf2 pathway activator […] (DEM) as a positive control, in order to evaluate the effect of niclosamide on ggcsh, a nrf2 downstream target. Ggcsh was previously validated as a Nrf2 downstream target in zebrafish. (Sheets, 2017). Following incubation, the total RNA was isolated from whole fish and processed to measure the induced expression of nrf2 downstream gene ggcsh. […] Additionally, Nrf2a morpholinos morphlinos were prepared, followed by incubation of the zebrafish morphants with cisplatin and/or niclosamide. Zebrafish eggs were injected with 4.5 ng of scrambled morpholino or nrf2a morpholino (5′-[…] SEQ NO: 1). At 3 dpf non-injected and morphant animals were exposed to vehicle, cisplatin (300 μM), cisplatin+niclosamide 18.3 nM or niclosamide alone for 6 hours. Following 1-hour recovery, animals were fixed and processed for immunohistochemistry. Nrf2a KD was confirmed by analyzing expression of Glutathione S-transferase P1 (gstp1), a downstream target, due to lack of proper antibody to detect Nrf2 protein in zebrafish.

A549 = test: Survival of A549 cells with or without Cisplatin and Niclosamide; assay type: cell-based; conditions: 10 nM
Method: Now referring to FIG. 8, In vitro model of […] incubated with or without Cisplatin and 10 nM of Niclosamide. Cells were maintained in culture with the aid of Matrigel as previously described in Kelley and Driver, Curr. Protoc. Neurosci. Ch.(4); Unit(4); 34.1-10 (2010). After cells had been in culture for 1 d, growth medium DMEM (12430-054; GIB CO Life Technologies, with 1% FBS [16000-044; GIB CO Life Technologies] and 50 μg/ml ampicillin) with or without test compounds may be added for preincubation for 1 hr. at 37° C. in 5% Co2, and may be followed by incubation with 50 μM Cisplatin (479306; Sigma-Aldrich) with or without the test compound in growth medium for 24 hr. at 37° C. A Cisplatin concentration of 50 μM may be used for the explant assay due to its consistent showing of decreases outer hair cells by about −40% in the mouse cochlea after 24 hours. Cochlea may be fixed in 4% PFA and stained for actin with Alex Fluor 568 phalloidin to determine the viability of the HCs. Cochlea may also be stained by DAPI, FM1-43 dye uptake, and immunohistochemical staining for known HC markers (including parvalbumin and myosin 7a. Cochlea may be imaged by confocal microscopy. Two 160-μm regions from middle turns may be photographed, and the number of intact HCs can be counted.

HEI-OC1 cells = test: Caspase-Glo 3/7 assay in HEI-OC1 cells treated with Cisplatin; assay type: cell-based, mouse
Method: Now referring to FIG. 3A, and FIGS. 3D-3E, compounds protect from cisplatin toxicity in the mouse inner ear cell line. House Ear Institute-Organ of Corti 1 (HEI-OC1) cells (House Research Institute) were maintained in high-glucose Dulbecco's modified Eagle medium supplemented with 10% fetal bovine serum (Life Technologies, USA) at 33° C. and 10% CO2 as previously described (Kalinec et al., 2003). Cells were seeded at 8,000 cells/well in 96 well plates and left to attach overnight. Now referring to FIG. 3A, For the drug screening, HEI-OC1 cells were pretreated with 30 drug candidates at concentrations ranging from 2 nM to 40 μM one hour before receiving cisplatin. The cisplatin dose (50 μM) was based on our previously published dose response curve. The cells were co-incubated with cisplatin and drug candidates for an additional 19 hours prior to Caspase-Glo 3/7 assay (Promega, Madison, WI) as previously shown. Additionally, […] kenpaullone-treated cells were used as positive controls to validate our results. The DMSO concentration in drug preparation was adjusted to 0.1% v/v and it was verified that 0.5% DMSO had no effect on the cell death kinetics (Hall et al., 2014). Results of the assay were run in triplicate and normalized to cisplatin-only and media-only controls. The percent caspase activity was used to determine the relative protective effect of each compound. The luminescence detection representing caspase activity in each well was obtained using a Cytation Hybrid Multi-Mode Reader (Biotek, Winooski, VT, USA). The percent protection of the cells was calculated using caspase 3/7 readouts and the following formula: […]
In the following examples, Niclosamide, 5-chloro-N-(2-chloro-4-nitrophenyl)-2-hydroxy-benzamide, with a ≥95% purity was used for all experiments (Cayman Chemical, USA).

For `O=C(Nc1ccc([N+](=O)[O-])cc1Cl)c1cc(Cl)ccc1O` [Niclosamide, 5-chloro-N-(2-chloro-4-nitrophenyl)-2-hydroxy-benzamide], the “highest level of protection of neuromast HCs” value (zebrafish neuromast HCs; 0.002 μM, lowest concentration tested, normalized to Cisplatin only (0%) and DMSO (100%)) was roughly 50%, the “hair cell loss (fluorescent staining of neuromasts)” value (zebrafish neuromast HCs; 0.002-13.3 μM, Cisplatin-treated zebrafish) was “reduce hair cell loss” and the “Cisplatin damage in zebrafish HCs at S03 and O1-2” value (zebrafish neuromast HCs; pretreated with 0.002 μM) was “significantly reduced Cisplatin damage”. The Cmax [1] was 18 µM, the expression of ggcsh (ggcsh) was “significantly lowered” and the “effect on Cisplatin-tumor killing activity” value (A549) was “did not affect Cisplatin-tumor killing activity”. For the same compound, the “share of the dosage range tested with some level of protection” value (HEI-OC1 cells; 2 nM to 40 μM tested) was “over 80%”, the “protection against Cisplatin damage compared to kenpaullone” value (HEI-OC1 cells; HEI-OC1 cells) was “comparable levels of protection to kenpaullone” and the “protection compared to sodium thiosulfate, ebselen, dexamethasone, N-acetylcysteine” value (HEI-OC1 cells; HEI-OC1 cells) was “better protection than four other benchmark compounds”. The caspase activity (HEI-OC1 cells; at a dosage of ~4.4 μM, Cisplatin 50 μM) was 0% and the “caspase-3/7 activity relative to control cells” value (HEI-OC1 cells; dose of 4.4 μM, Cisplatin 50 μM) was “reduce caspase activity to comparable levels as control cells”.
